According to publication PMC9281569, “Two HCN4 Channels Play Functional Roles in the Zebrafish Heart” (Frontiers in Physiology, 2022):
“And” between values parts separate entries of the source, which are not always exact repeats. Equal entries are not always repeated. Structures can show the parent of a compound that is named as a salt. Where two headings read alike, the source gives them in different places.

Columns and labels:
DrHCN4 = biological target: T1, DrHCN4 (Danio rerio, UniProt A0A8N7UQR8); test: Inhibition of HCN4 currents in Xenopus oocytes, two-electrode voltage clamp; format: cell-based, zebrafish (Danio rerio); details: holding −30 mV, hyperpolarized to −120 mV for 2 s, room temperature
T1 sequence (A0A8N7UQR8 1-1140): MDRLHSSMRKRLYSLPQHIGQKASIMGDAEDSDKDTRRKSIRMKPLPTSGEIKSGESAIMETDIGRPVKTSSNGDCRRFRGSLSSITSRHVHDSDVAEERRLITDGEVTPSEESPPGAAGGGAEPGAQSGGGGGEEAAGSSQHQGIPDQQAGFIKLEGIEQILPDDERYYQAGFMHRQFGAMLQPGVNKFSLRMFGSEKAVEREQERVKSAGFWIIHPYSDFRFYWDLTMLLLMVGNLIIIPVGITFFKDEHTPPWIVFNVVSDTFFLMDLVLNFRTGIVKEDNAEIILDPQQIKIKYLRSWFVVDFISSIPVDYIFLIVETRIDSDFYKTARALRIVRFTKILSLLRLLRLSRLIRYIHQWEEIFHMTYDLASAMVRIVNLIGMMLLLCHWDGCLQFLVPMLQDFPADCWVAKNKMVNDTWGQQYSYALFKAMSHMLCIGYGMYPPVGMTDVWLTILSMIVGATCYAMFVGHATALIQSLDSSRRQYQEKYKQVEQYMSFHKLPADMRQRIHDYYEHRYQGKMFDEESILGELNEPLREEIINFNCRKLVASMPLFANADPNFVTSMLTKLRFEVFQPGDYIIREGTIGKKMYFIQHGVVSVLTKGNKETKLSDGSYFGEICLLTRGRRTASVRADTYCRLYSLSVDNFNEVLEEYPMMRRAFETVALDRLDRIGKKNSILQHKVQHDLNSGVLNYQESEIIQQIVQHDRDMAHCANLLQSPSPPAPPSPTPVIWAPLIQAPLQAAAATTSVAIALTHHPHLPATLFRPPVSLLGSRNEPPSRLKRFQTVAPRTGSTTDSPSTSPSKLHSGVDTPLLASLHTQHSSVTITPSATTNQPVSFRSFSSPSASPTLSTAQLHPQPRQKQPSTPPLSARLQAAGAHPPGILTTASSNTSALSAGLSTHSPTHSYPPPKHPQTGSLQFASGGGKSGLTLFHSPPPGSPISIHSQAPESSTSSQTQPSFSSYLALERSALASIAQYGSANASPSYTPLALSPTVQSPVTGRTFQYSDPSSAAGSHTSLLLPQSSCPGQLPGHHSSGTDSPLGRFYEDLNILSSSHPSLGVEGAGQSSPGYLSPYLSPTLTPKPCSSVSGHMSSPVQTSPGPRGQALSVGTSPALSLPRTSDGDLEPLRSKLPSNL

[1] = system: developing zebrafish embryos; test: HCN inhibitors in egg water: heart rate of developing zebrafish embryos; details: for Effect on heart rate, concentration dependence: 10 μM, 100 μM, 24 h and 48 h; for Effect on heart rate, concentration dependence / Heart rate recovery after washout: 1 mM; for Heart rate recovery after washout: 6 h after washout; for Pericardial edema in inhibitor-treated zebrafish: zebrafish embryos treated with inhibitor
HsHCN4 = biological target: T2, HsHCN4 (Homo sapiens, UniProt Q9Y3Q4); test: Inhibition of HCN4 currents in Xenopus oocytes, two-electrode voltage clamp; format: cell-based; details: holding −30 mV, hyperpolarized to −120 mV for 2 s, room temperature
T2 construct: host or cells: Xenopus laevis oocytes injected with cRNA (pGEMHE vector)
T2 sequence (Q9Y3Q4 1-1203): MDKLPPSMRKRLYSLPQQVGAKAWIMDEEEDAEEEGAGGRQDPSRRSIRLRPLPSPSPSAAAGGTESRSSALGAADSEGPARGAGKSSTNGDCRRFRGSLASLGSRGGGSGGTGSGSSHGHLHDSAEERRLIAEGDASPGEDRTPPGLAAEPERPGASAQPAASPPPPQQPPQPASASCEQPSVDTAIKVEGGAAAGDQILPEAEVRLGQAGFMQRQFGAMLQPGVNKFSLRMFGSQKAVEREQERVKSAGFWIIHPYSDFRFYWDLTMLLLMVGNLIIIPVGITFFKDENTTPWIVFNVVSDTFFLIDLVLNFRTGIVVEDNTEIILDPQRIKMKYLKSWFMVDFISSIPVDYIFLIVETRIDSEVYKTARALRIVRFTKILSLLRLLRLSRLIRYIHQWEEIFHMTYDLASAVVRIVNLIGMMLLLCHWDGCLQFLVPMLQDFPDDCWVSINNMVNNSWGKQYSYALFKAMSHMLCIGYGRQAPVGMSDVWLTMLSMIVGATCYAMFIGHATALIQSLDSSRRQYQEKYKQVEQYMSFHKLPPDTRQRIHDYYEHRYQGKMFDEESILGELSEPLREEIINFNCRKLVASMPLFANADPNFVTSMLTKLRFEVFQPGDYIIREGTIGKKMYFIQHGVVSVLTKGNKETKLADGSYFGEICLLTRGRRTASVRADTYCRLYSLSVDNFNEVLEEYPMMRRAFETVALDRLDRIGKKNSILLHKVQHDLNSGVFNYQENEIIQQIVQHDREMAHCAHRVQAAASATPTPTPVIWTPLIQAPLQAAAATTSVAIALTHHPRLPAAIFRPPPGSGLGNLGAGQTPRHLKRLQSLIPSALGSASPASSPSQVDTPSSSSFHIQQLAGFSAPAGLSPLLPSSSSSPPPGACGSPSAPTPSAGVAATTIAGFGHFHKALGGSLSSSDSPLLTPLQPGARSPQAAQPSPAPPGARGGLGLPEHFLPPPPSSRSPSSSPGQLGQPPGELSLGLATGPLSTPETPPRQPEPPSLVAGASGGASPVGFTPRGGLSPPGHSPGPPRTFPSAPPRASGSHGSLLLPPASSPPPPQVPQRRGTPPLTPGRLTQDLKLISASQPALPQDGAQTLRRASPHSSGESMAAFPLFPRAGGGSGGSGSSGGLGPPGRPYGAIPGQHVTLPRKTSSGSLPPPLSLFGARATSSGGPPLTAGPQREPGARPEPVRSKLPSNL

[2] = DrHCN4 in Xenopus oocytes, read-out: IC50
[3] = 0 h (24 hpf), before application of inhibitor, 1 mM group
[4] = 24 h after application, 1 mM in egg water
[5] = 48 h after application, 1 mM in egg water
[6] = Washout, 6 h in inhibitor-free water after 48 h, 1 mM group
[7] = 0 h (24 hpf), before application of inhibitor, 10 μM group
[8] = 0 h (24 hpf), before application of inhibitor, 100 μM group
[9] = 24 h after application, 10 μM in egg water
[10] = 24 h after application, 100 μM in egg water
[11] = 48 h after application, 10 μM in egg water
[12] = 48 h after application, 100 μM in egg water
[13] = Washout, 6 h in inhibitor-free water after 48 h, 10 μM group
[14] = Washout, 6 h in inhibitor-free water after 48 h, 100 μM group

| Structure (SMILES) | IC50 (DrHCN4; DrHCN4 in Xenopus oocytes, listed as Cs^+, read-out: IC50) [µM] | IC50 (DrHCN4; [2]) [µM] | Heart rate [1, 3] [bpm] | Heart rate [1, 4] [bpm] | Heart rate [1, 5] [bpm] | Heart rate [1, 6] [bpm] | IC50 (HsHCN4) | IC50 (HsHCN4; listed as Cs^+) [µM] | IC50 (DrHCN4; IC50, DrHCN4 in Xenopus oocytes) | Heart rate [1, 7] [bpm] | Heart rate [1, 8] [bpm] | Effect on heart rate, concentration dependence [1] | Heart rate recovery after washout [1] | Heart rate [1, 9] [bpm] | Heart rate [1, 10] [bpm] | Heart rate [1, 11] [bpm] | Heart rate [1, 12] [bpm] | Heart rate [1, 13] [bpm] | Heart rate [1, 14] [bpm] | Pericardial edema in inhibitor-treated zebrafish [1] |
| --- | --- | --- | --- | --- | --- | --- | --- | --- | --- | --- | --- | --- | --- | --- | --- | --- | --- | --- | --- | --- |
| [Cl-].[Cs+] [Cesium ion, Cesium chloride] | 44 ± 11 | 44.3 ± 11.2 | 89 ± 1 | 131 ± 2 | 133 ± 2 | 139 ± 3 | 68.8 ± 14 µM | 69 ± 14 | – | – | – | – | – | – | – | – | – | – | – | – |
| COc1cc2c(cc1OC)CC(=O)N(CCCN(C)C[C@H]1Cc3cc(OC)c(OC)cc31)CC2 [Ivabradine, ivabradine hydrochloride] | – | – | 85 ± 2 | 98 ± 2 | 72 ± 2 | 115 ± 3 | 38 µM and 37.6 µM | – | 31 µM and 30.9 µM | 81 ± 3 | 81 ± 2 | significantly suppressed heart rate at all concentrations and time points | recovered | 134 ± 4 | 124 ± 5 | 133 ± 2 | 101 ± 2 | 149 ± 3 | 133 ± 3 | no pericardial edema was observed |
| CCN(c1ccccc1)c1cc(=NC)n(C)c(C)n1.Cl [ZD7288] | – | 699 ± 216 | 84 ± 3 | 113 ± 3 | 94 ± 2 | 115 ± 2 | 167 ± 56 µM | – | – | 81 ± 4 | 80 ± 3 | significantly lowered heart rate, except for a concentration of 10 μM at 24 h | recovered | 150 ± 3 | 129 ± 1 | 142 ± 2 | 97 ± 4 | 160 ± 3 | 140 ± 4 | no pericardial edema was observed |
